Experimental data from article PMC10223884, “Oligosaccharide Ligands of Galectin-4 and Its Subunits: Multivalency Scores Highly” (Molecules, 2023).

What was measured:
Gal-4N = target: Gal-4N; set-up: method as in PMID 26828567, PMID 26077389; details: fluorescence anisotropy, read-out: binding constant; cited from earlier work
Gal-4CL = target: T1, Gal-4CL (Homo sapiens, UniProt P56470); assay: competitive ELISA, inhibition of binding of Gal-4CL subunit to immobilized ASF
T1 construct: designated as Gal-4NL (aa 1-160), and Gal-4CL (aa 169-323), respectively; made in house; host or cells: E. coli Rosetta (DE3) pLysS
T1 sequence (P56470 169-323): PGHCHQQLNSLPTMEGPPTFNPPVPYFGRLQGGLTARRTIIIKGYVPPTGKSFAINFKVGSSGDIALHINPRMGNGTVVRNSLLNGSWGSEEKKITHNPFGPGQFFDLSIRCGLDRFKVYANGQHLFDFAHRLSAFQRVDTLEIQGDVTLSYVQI
Experimental: (§1) To design the ELISA method, we first examined the direct binding of the whole Gal-4, Gal-4NL, and Gal-4-CL to standard glycoprotein asialofetuin (ASF, MW 48.4 kDa), which carries up to nine LacNAc epitopes. The ASF was immobilized by hydrophobic interaction in microtiter-plate wells, and the binding of increasing concentrations of Gal-4 proteins was quantified by colorimetric immunodetection using horseradish peroxidase conjugated to an anti-His-tag antibody. The apparent dissociation constants (KD) were calculated from the non-linear regression of the binding curves (Figure 3). […] While for the Gal-4 ELISA measurement we used the concentration of Gal-4 of 2.5 μM, for both subunits, it was 25 μM. […] The Gal-4 proteins were incubated with increasing concentrations of the respective inhibitors, and the concentration-dependent inhibition of the binding to the immobilized ASF was quantified using spectrophotometric colorimetric immunodetection (HRP-conjugated anti-His-tag antibody). The respective half-maximal inhibition constants (IC50) were calculated from the non-linear regression of the sigmoidal curves (Figure 3), and they are shown in Table 2 and Table 3.
(§2) Each incubation step was followed by washing the wells with 3 × 250 µL phosphate-buffered saline (PBS) containing 0.05% Tween® 20. In total, 0.1 µM ASF in PBS (50 µL/well) was coated onto microtiter plates (Nunc Immuno Sorb, ThermoFisher Scientific, Waltham, MA, USA) overnight. After blocking the wells with 2 mg/mL bovine serum albumin (BSA) in PBS buffer (250 µL/well, 1 h), serial dilutions of the inhibitors in PBS buffer containing 2 mM EDTA (EPBS) were incubated with Gal-4 (2.5 µM final dimer concentration) or its subunits, Gal-4CL and Gal-4NL (25 µM final monomer concentration) for 2 h (50 µL/well). The residual bound galectin was labeled with an anti-His-antibody conjugated with horseradish peroxidase (HRP) (Santa Cruz Biotechnology, Heidelberg, Germany; 1:999 dilution in PBS). The colorimetric reaction with TMB One substrate solution (Kem-En-Tec, Taastrup, Denmark; 50 µL/well) was stopped with 3 M hydrochloric acid (HCl) (50 µL/well) and quantified spectrophotometrically at 450 nm (Sunrise; Tecan Group Ltd., Männedorf, Switzerland). The values of half-maximal inhibitory concentrations (IC50) were calculated by non-linear regression (dose–response inhibition-variable slope) of sigmoidal curves from a minimum of three independent experiments using GraphPad Prism 8.4.3 (GraphPad Software, San Diego, CA, USA).

Gal-4NL [1] = target: Gal-4NL; set-up: method as in PMID 33968903; details: ITC; cited from earlier work
Gal-4 = target: T2, Gal-4 (Homo sapiens, UniProt P56470); assay: competitive ELISA, inhibition of binding of whole Gal-4 to immobilized ASF
T2 construct: made in house; host or cells: Escherichia coli Rosetta (DE3) pLysS
T2 sequence (P56470 1-323): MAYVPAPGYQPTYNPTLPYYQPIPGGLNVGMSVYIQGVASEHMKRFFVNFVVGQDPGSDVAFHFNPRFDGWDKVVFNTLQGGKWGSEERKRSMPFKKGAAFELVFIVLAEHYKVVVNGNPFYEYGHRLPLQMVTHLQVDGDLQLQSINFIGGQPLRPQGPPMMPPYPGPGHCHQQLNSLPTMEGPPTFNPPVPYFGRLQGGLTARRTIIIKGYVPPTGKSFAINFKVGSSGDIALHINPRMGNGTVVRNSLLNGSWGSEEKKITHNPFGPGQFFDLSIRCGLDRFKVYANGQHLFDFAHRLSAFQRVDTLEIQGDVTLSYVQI
Experimental: as §1, §2

Gal-4C = target: Gal-4C; set-up: method as in PMID 26828567, PMID 26077389; details: fluorescence anisotropy, read-out: binding constant; cited from earlier work
Gal-4NL [2] = target: T3, Gal-4NL (Homo sapiens, UniProt P56470); assay: competitive ELISA, inhibition of binding of Gal-4NL subunit to immobilized ASF
T3 construct: designated as Gal-4NL (aa 1-160), and Gal-4CL (aa 169-323), respectively; made in house; host or cells: E. coli Rosetta (DE3) pLysS
T3 sequence (P56470 1-160): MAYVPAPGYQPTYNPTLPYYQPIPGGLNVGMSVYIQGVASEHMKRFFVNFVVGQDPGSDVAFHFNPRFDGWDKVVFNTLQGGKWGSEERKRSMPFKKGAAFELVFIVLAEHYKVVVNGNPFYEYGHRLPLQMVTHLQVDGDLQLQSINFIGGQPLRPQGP
Experimental: as §1, §2

- rp Gal-4CL, relative potency (IC50 (lactose)/IC50 (ligand)) (Gal-4CL; Gal-4CL): 320
- IC50 (Gal-4CL; competitive ELISA, Gal-4CL 25 µM, immobilized ASF): 27 ± 5 µM
- IC50 (Gal-4; competitive ELISA, Gal-4 2.5 µM, immobilized ASF): 50 ± 20 µM
- rp, relative potency (IC50 (lactose)/IC50 (ligand)) (Gal-4; whole Gal-4): 48
- rp Gal-4NL, relative potency (IC50 (lactose)/IC50 (ligand)) (Gal-4NL [2]; Gal-4NL): 130
- fold stronger inhibitor of Gal-4NL than blood-group antigen B (Gal-4NL [2]; Gal-4NL, ELISA): 12 fold
- IC50 (Gal-4NL [2]; competitive ELISA, Gal-4NL 25 µM, immobilized ASF): 22 ± 1 µM
SMILES: CC(=O)N[C@H]1[C@@H](O[C@H]2[C@@H](O)[C@@H](CO)O[C@@H](O[C@H]3[C@H](O)[C@@H](O)C(O)O[C@@H]3CO)[C@@H]2O[C@@H]2O[C@@H](C)[C@@H](O)[C@@H](O)[C@@H]2O)O[C@H](CO)[C@H](O)[C@@H]1O (stereo partly shown) [blood-group antigen A (5), blood-group antigen A type 6]
- Kd (Gal-4N): 164 µM
- Kd (Gal-4NL [1]): 86 µM
- Kd (Gal-4C): 75 µM
